Target: T1, Induced myeloid leukemia cell differentiation protein Mcl-1 [171-327] (Homo sapiens, UniProt Q07820)
T1 construct: 171-327
Assay: AlphaLISA Assay
Protocol: The AlphaLISA assay was performed in a 384-well Proxiplate in a total volume of […]. The reaction mixture contained 0.0625 nM 6× His-Mcl-1 (171-327), 0.0625 nM biotinylated-Bim peptide, 10 μg/mL AlphaLISA anti-6×His-AlphaLISA acceptor beads, 40 μg/mL AlphaScreen streptavidin donor beads, and serially diluted test compounds in the binding buffer (20 mM Hepes, pH 7.5 (Teknova H1035); 150 mM NaCl (Promega V4221); 0.002% Brij 35 (Thermo Scientific 20150); 1 mM Dithiothreitol (DTT) Solution (Affymetrix 70726); 0.01% BSA (BioLabs B9000S)). 1,000× test compounds were pre-spotted onto 384-well Proxiplate (Labcyte Echo) by Echo 555 Liquid Handler (Labcyte Inc., San Jose, Calif.) followed by incubation of 5 μl Mcl-1(171-327) for 1 hour. Then 5 μL Bim (51-76) was added and incubated for 2 hours. Five μL AlphaLISA anti-6His-AlphaLISA acceptor beads were then added for 1 hour followed by addition of 5 μL AlphaScreen streptavidin donor beads for 1 hour. The reaction plates were then read on an Envision multimode reader (PerkinElmer) using AlphaScreen settings.

T1 sequence (Q07820 171-327): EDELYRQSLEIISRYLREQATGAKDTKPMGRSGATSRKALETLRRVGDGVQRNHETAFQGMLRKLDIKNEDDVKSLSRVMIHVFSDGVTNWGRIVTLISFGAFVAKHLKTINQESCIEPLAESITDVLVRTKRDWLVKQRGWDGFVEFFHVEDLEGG

| Structure (SMILES) | IC50 [nM] |
| --- | --- |
| CO[C@H]1/C=C/C[C@H](C)C[S@@](=O)(NC(=O)c2cc3n(c2F)CCOC3)=NC(=O)c2ccc3c(c2)N(C[C@@H]2CC[C@H]21)C[C@@]1(CCCc2cc(Cl)ccc21)CO3 [US10988451, Example 174] | 0.153 |
| C[C@@H]1[C@@H](C)C/C=C/[C@H](O)[C@@H]2CC[C@H]2CN2C[C@@]3(CCCc4cc(Cl)ccc43)COc3ccc(cc32)C(=O)N=[S@]1(=O)NC(=O)c1cc2n(c1)C[C@H](CN1CCN3CCOC[C@H]3C1)OC2 [US10988451, Example 229] | 0.03 |
| CO[C@H]1/C=C/C[C@H](C)C[S@@](=O)(NC(=O)C2CC(OC(F)F)C2)=NC(=O)c2ccc3c(c2)N(C[C@@H]2CC[C@H]21)C[C@@]1(CCCc2cc(Cl)ccc21)CO3 (stereo partly drawn) [US10988451, Example 431] | 0.121 |

From BindingDB's records for patent US10988451 (Gilead Sciences, 2021)
